Data: patent US5106976A, “Fused pyrazine sulfoxide derivatives for use as antiulcer agents” (Nippon Chemiphar Co., Ltd., priority 1986, dated 1992)
Like-named read-outs stand apart in the source and are kept apart here.

Legend:
[1] = test system: secretion of gastric acid; test: Inhibitory action against secretion of gastric acid (pylorus-ligated rats, Shay method); assay type: in vivo, male Donryu rats; conditions: read-out: Suppressive action against secretion of gastric acid
Experimental: Under ether anesthesia, the pylorus of the rat was ligated and each test compound was administered intraduodenally. Four hours later, each rat was killed and the stomach was removed to collect the gastric juice. The inhibitory action was determined by comparing the acid output which was obtained by titration to pH 7.0 with 0.1-N NaOH by means of an automatic titrator, with the corresponding value of a control rat prepared in the same manner except that a vehicle alone was administered.

H^+ +K^+ ATPase = target: T1, H^+ +K^+ ATPase (Oryctolagus cuniculus, UniProt P27112); test: H+ + K+ ATPase inhibitory effect (vesicles from rabbit gastric mucosa cells); assay type: biochemical; conditions: 2×10^-4 M test compound, 25 min room temperature preincubation at pH 6.0; reaction pH 7.4, 37° C., 15 min
T1 construct: gastric acid secretory cells of a rabbit gastric mucosa were isolated and vesicle containing H^+ +K^+ ATPase was prepared; from tissue; host or cells: rabbit gastric mucosa, acid secretory cells; vesicles by Ficoll discontinuous density gradient
T1 sequence (P27112 whole entry): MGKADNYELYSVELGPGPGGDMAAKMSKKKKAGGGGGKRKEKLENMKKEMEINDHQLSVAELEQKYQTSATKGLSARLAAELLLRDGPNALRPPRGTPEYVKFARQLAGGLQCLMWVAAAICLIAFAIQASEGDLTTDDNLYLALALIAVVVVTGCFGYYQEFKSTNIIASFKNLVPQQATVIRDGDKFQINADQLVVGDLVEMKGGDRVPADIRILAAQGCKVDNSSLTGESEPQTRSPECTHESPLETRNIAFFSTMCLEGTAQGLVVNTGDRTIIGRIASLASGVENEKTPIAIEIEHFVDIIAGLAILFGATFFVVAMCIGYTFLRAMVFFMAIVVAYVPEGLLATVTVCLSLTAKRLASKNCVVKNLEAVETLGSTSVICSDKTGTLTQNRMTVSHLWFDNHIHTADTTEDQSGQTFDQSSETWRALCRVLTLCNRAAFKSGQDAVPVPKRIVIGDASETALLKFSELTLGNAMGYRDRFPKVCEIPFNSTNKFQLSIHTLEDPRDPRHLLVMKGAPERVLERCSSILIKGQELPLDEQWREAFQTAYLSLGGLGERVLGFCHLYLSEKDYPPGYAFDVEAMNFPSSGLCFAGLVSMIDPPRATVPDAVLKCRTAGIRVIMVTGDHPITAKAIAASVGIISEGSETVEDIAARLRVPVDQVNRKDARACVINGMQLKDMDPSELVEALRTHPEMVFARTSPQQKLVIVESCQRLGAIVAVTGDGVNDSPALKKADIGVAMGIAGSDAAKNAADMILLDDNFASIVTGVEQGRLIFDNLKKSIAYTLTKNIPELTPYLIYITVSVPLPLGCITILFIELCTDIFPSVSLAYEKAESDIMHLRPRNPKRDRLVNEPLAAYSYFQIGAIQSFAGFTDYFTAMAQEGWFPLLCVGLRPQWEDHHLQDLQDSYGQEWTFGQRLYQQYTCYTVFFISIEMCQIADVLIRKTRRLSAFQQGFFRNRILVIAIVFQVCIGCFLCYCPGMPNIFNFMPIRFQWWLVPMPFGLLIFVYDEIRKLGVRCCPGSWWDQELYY
T1 sequence (P18597 whole entry partner): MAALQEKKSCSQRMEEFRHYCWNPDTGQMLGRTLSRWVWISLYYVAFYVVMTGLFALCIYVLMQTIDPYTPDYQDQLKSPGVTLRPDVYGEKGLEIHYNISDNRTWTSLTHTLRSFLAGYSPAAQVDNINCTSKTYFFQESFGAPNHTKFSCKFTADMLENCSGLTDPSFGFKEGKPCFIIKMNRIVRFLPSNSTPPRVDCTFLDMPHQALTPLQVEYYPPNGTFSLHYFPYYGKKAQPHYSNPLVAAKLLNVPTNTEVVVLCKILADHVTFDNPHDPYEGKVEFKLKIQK
Experimental: Following the method of Forte et al [J. Applied Physiol., 32, 714-717 (1972)], gastric acid secretory cells of a rabbit gastric mucosa were isolated and vesicle containing H^+ +K^+ ATPase was prepared by centrifuging the cells in Ficoll of discontinuous density gradient. After the enzyme was incubated at room temperature for 25 min. in 0.5 ml of a solution which contained 5 mM of an imidazole buffer (pH 6.0) and 2×10^-4 M of each test compound, the mixture was heated to 37° C. at which it was allowed to stand for further 5 min. To the mixture was added 0.5 ml of a solution which contained 4 mM of magnesium chloride, 80 mM of an imidazole buffer (pH 7.4), 20 mM of potassium chloride and 4 mM of ATP. The resulting mixture was caused to react at 37° C. for 15 min., and 1 ml of a 24% solution of trichloroacetic acid was then added to terminate the reaction. The inorganic phosphorus liberated was quantitatively analyzed by the method proposed by Taussky and Shorr [J. Biol. Chem., 202, 675- 685 (1953)]. The K^+ -dependent activity of the ATPase was determined by subtracting its activity obtained when no potassium chloride was contained. The results are set forth in Table 1 in which Compound Nos. 1-7 are the sulfoxide derivatives prepared in the hereinafter-described Examples 1-7, respectively.

[2] = Water-immersion stress-induced erosions (gastric lesion model); assay type: in vivo, male Donryu rats; conditions: rat, 10 minutes before stressing, 7 hours immersion
Experimental: Two different types of gastric lesion models were induced in male Donryu rats (180 to 240 g) which had been deprived of food but allowed free acess to water for 24 to 48 hours prior to experiments. Rats fasted for 24 hours before experiments were placed in a restraint cage. The animals were immersed vertically to the level of the xiphoid process in a water bath (21° C.) for 7 hours and then killed. The stomach of each rat was removed and inflated by injecting 10 ml of 1% formalin to fix the inner and outer layers of the gastric walls. This formalin treatment was performed in all of the following experiments. Subsequently, the stomach was incised along a greater curvature and examined for any erosion in the glandular portion. Each test compound or a vehicle alone was given orally 10 minutes before stressing.

[3] = HCl-ethanol-induced erosions (gastric lesion model); assay type: in vivo, male Donryu rats; conditions: rat, 30 minutes before ethanol treatment
Experimental: Two different types of gastric lesion models were induced in male Donryu rats (180 to 240 g) which had been deprived of food but allowed free acess to water for 24 to 48 hours prior to experiments.
A hydrochloric acid-ethanol solution (150 mM HCl in 60% ethanol) was given orally to rats in a dose of 1 ml/200 g, which rats had been fasted for 24 hours before experiments. One hour later, each animal was killed and the stomach was examined for any erosion in the glandular portion. Each test compound or a vehicle alone was given orally 30 minutes before ethanol treatment.

[4] = 100 mg/kg intraduodenal, rat, 4 hours
[5] = Rattus norvegicus, intraduodenal, 4 h

inhibition at 200 µM (H^+ +K^+ ATPase) [%] | SMILES | inhibition in vivo at 100 mg/kg [1, 4] [%] | also measured
96.8 | [O-][S+](Cc1ccccn1)c1cnc2ccccc2n1 (stereo not shown) [Compound No. 2, 2-(2-pyridylmethylsulfinyl)quinoxaline] | 54.8 | –
89.4 | Cc1nc2cccnc2nc1[S+]([O-])Cc1ccccn1 (stereo not shown) [Compound No. 4, 2-methyl-3-(2-pyridylmethylsulfinyl)pyrido[2,3-b]pyrazine] | 96.7 | –
99.5 | Cc1nc2ccccc2nc1[S+]([O-])Cc1ccccn1 (stereo not shown) [Compound No. 3, 3-methyl-2-(2-pyridylmethylsulfinyl)quinoxaline] | 54.7 | –
100 | Cc1nc2ccccc2nc1[S+]([O-])Cc1ccccc1N(C)C (stereo not shown) [Compound No. 6, 2-(2-dimethylaminobenzylsulfinyl)-3-methylquinoxaline] | 89.6 | –

The remaining lines, values behind:

SMILES | inhibition at 200 µM (H^+ +K^+ ATPase) [%] | inhibition in vivo at 100 mg/kg [1, 4] [%] | also measured
CN(C)c1ccccc1C[S+]([O-])c1cnc2ccccc2n1 (stereo not shown) [Compound No. 5, 2-(2-dimethylaminobenzylsulfinyl)quinoxaline] | 100 | 55.1 | –
CNC(=NCCSCc1nc[nH]c1C)NC#N [Cimetidine, N-cyano-N'-methyl-N"-[2-[[(5-methyl-1H-imidazol-4-yl)methyl]thio]-ethyl]guanidine, reference compound] | – | – | inhibition in vivo at 10 mg/kg [1, 5]: 25.3%; inhibition in vivo at 30 mg/kg [1, 5]: 59.1%; inhibition in vivo at 100 mg/kg [1, 5]: 80.3%; Inhibition on Water-Immersion stress-induced erosions ([2]; 60 mg/kg oral): 49%; Inhibition on Water-Immersion stress-induced erosions ([2]; 200 mg/kg oral): 87%
CN(C)c1ccccc1C[S+]([O-])c1nc2ncccc2[nH]1 (stereo not shown) [Compound No. 1, 2-(2-dimethylaminobenzylsulfinyl)imidazo[4,5-b]pyridine] | 92.3 | 95.1 | Inhibition on HCl--Ethanol-induced Erosions ([3]; 10 mg/kg oral): 37%; Inhibition on HCl--Ethanol-induced Erosions ([3]; 30 mg/kg oral): 97%; inhibition in vivo at 10 mg/kg ([1]; 10 mg/kg intraduodenal, rat, 4 hours): 53%; inhibition in vivo at 30 mg/kg ([1]; 30 mg/kg intraduodenal, rat, 4 hours): 79%; Inhibition on Water-Immersion stress-induced erosions ([2]; 30 mg/kg oral): 66%; Inhibition on Water-Immersion stress-induced erosions ([2]; 100 mg/kg oral): 87%
Cc1cc2nc(C)c([S+]([O-])Cc3ccccc3N(C)C)nc2cc1C (stereo not shown) [Compound No. 7, 2-(2-dimethylaminobenzylsulfinyl)-3,6,7-trimethylquinoxaline] | 80.8 | 46.9 | –
